According to ChEMBL document CHEMBL2074556, “Possible involvement of P-glycoprotein in the biliary excretion of grepafloxacin” (Clin Exp Pharmacol Physiol, 2002):

How the values were obtained:
[1] = molecular target: T1, ATP-dependent translocase ABCB1 (Mus musculus, UniProt P21447); assay: TP_TRANSPORTER: increase in Doxorubicin intracellular accumulation (Doxorubicin: 5 uM, GPFX: 500 uM) in P388/ADR cells; assay type: functional, cell-based
[2] = molecular target: Multidrug resistance protein 1a (Rattus norvegicus) (UniProt Q6PSM0); assay: TP_TRANSPORTER: […] in biliary excretion by Doxorubicin, Cyclosporin A and Erythromycin in vivo Wistar rat; assay type: functional, organism-based; conditions: Bile
[3] = molecular target: T1, ATP-dependent translocase ABCB1; assay: TP_TRANSPORTER: increase in Doxorubicin intracellular accumulation (Doxorubicin: 5 uM, SPFX: 500 uM) in P388/ADR cells; assay type: functional, cell-based
[4] = molecular target: T1, ATP-dependent translocase ABCB1; assay: TP_TRANSPORTER: increase in Doxorubicin intracellular accumulation (Doxorubicin: 5 uM, Norfloxacin: 500 uM) in P388/ADR cells; assay type: functional, cell-based
[5] = molecular target: T1, ATP-dependent translocase ABCB1; assay: TP_TRANSPORTER: increase in Doxorubicin intracellular accumulation (Doxorubicin: 5 uM, Tosufloxacin: 500 uM) in P388/ADR cells; assay type: functional, cell-based

T1 sequence (P21447 whole entry): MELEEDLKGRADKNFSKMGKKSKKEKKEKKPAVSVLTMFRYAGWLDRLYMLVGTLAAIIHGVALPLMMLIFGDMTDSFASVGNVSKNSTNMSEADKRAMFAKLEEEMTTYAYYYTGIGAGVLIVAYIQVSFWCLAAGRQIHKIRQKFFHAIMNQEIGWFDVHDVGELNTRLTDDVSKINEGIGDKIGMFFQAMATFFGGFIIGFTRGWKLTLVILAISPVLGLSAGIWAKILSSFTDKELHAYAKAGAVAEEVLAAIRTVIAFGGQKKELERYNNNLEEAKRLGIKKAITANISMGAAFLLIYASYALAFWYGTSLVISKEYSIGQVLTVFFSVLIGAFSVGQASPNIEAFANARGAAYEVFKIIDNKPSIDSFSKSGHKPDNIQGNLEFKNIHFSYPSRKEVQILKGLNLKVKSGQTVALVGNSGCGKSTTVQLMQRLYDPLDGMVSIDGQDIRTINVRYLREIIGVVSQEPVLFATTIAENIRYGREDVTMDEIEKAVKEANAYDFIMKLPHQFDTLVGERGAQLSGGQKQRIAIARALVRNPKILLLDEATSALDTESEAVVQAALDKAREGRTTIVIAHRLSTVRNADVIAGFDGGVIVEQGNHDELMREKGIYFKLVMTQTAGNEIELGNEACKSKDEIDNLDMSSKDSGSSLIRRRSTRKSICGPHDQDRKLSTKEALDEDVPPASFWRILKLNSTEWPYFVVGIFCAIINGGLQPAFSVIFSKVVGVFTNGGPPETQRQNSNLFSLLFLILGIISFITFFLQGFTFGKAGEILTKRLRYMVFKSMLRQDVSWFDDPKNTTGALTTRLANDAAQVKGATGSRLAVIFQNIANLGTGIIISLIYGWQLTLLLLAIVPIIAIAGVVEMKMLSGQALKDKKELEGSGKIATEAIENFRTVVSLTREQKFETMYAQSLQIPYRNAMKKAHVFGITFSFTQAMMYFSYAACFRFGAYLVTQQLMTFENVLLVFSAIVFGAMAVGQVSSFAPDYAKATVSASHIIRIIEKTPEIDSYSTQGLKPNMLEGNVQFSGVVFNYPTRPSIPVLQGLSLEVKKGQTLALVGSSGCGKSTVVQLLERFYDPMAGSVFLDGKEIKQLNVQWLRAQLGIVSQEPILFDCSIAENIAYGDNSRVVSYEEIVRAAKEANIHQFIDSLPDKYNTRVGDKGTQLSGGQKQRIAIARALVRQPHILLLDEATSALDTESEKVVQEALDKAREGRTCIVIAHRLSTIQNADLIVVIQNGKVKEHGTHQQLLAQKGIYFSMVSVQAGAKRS
Chain of Multidrug resistance protein 1a (Rattus norvegicus) (Q6PSM0 as listed by the source): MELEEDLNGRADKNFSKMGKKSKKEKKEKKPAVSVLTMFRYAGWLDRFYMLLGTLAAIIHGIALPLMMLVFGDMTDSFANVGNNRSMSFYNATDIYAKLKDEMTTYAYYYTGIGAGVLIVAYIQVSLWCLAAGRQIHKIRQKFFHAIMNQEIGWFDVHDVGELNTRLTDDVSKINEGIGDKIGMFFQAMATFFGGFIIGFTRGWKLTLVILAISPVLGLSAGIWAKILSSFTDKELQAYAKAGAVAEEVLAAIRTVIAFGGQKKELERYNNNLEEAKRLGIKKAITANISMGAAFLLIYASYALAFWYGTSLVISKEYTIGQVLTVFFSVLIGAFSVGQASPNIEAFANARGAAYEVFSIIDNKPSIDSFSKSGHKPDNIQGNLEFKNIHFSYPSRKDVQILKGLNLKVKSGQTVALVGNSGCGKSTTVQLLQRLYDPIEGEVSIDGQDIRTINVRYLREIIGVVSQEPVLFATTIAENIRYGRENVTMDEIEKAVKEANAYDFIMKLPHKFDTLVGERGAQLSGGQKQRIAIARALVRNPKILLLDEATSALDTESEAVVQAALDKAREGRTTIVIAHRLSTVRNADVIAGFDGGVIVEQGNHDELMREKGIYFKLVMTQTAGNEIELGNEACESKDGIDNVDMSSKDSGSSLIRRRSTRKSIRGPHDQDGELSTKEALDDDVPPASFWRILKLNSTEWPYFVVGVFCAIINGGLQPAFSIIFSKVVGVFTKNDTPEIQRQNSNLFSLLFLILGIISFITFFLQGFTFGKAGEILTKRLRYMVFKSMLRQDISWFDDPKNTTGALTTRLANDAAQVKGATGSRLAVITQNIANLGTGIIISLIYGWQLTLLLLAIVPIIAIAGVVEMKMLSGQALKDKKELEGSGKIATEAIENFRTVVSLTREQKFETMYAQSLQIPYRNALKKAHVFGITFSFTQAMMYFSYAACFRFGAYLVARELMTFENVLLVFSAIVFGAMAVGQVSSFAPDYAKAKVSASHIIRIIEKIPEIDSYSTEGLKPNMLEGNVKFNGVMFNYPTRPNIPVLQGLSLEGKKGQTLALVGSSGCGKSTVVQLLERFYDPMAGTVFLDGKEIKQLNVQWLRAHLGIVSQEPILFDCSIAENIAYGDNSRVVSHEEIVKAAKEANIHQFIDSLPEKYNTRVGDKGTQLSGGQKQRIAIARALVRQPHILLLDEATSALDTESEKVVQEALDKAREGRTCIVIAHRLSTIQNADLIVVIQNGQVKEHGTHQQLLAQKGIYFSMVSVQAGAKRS

For `Cc1c(F)c(N2CCNC(C)C2)cc2c1c(=O)c(C(=O)O)cn2C1CC1` (stereo not given) [GREPAFLOXACIN], the Activity [1] was “inhibitor [(at a rough estimate) 140 % of control]” and the Activity [2] was “substrate [+]”.

For `C[C@@H]1CN(c2c(F)c(N)c3c(=O)c(C(=O)O)cn(C4CC4)c3c2F)C[C@H](C)N1` [SPARFLOXACIN], the Activity [3] was “inhibitor [(at a rough estimate) 140 % of control]”.

With `CCn1cc(C(=O)O)c(=O)c2cc(F)c(N3CCNCC3)cc21` [NORFLOXACIN] the Activity [4] was “inhibitor [(at a rough estimate) 290 % of control]”.

`NC1CCN(c2nc3c(cc2F)c(=O)c(C(=O)O)cn3-c2ccc(F)cc2F)C1` (stereo not given) [TOSUFLOXACIN] was tested, and the Activity [5] was “inhibitor [(at a rough estimate) 200 % of control]”.
